The values below are quoted from earlier work in US20240166664A1, “TRIHETEROCYCLIC COMPOUND, PREPARATION METHOD THEREFOR, AND APPLICATION THEREOF” (SHANGHAI APEIRON THERAPEUTICS COMPANY LIMITED, priority 2021, published 2024).

The series has as its system tumor. Particulars: preclinical experimental data; cited from earlier work.

Take `C[C@@H](COCCC(=O)N1CCN(c2ncc(C(F)(F)F)cn2)CC1)Nc1cn[nH]c(=O)c1C(F)(F)F` [RBN-2397]: the anti-tumor growth effect result is “potent anti-tumor growth effect increasing in a dose-dependent manner” and the “tumor-specific adaptive immune memory” value is “induces tumor-specific adaptive immune memory”.
